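Protocol summary: plate cells (96-well), add compound at 5 concentrations, incubate 48 h, interpolate endpoints linearly. TGI is the concentration that stops growth completely.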
Experiments:
Assay in all cases: NCI tumour cell line growth inhibition, 48 h
A498 renal = test system: A498 renal
ACHN renal = test system: ACHN renal
CAKI-1 renal = test system: CAKI-1 renal
CCRF-CEM leukemia = test system: CCRF-CEM leukemia
DU-145 prostate = test system: DU-145 prostate
EKVX NSCLC = test system: EKVX NSCLC
HL-60(TB) leukemia = test system: HL-60(TB) leukemia
HOP-62 NSCLC = test system: HOP-62 NSCLC
K-562 leukemia = test system: K-562 leukemia
MOLT-4 leukemia = test system: MOLT-4 leukemia
NCI-H226 lung = test system: NCI-H226 lung
NCI/ADR-RES ovarian = test system: NCI/ADR-RES ovarian
OVCAR-4 ovarian = test system: OVCAR-4 ovarian
PC-3 prostate = test system: PC-3 prostate
RXF 393 renal = test system: RXF 393 renal

With `CN(C)c1ccc(/C=C/C=c2/c3ccccc3n3c2cc(-c2ccccc2)[n+]3C)cc1` the TGI (A498 renal) was 1230 nM, the TGI (ACHN renal) was 1630 nM and the TGI (CAKI-1 renal) was 1170 nM. For the same molecule, the TGI (CCRF-CEM leukemia) was > 100000 nM, the TGI (DU-145 prostate) was 1030 nM and the TGI (EKVX NSCLC) was 1570 nM. The TGI (HL-60(TB) leukemia) was 509 nM, the TGI (HOP-62 NSCLC) was 1190 nM and the TGI (K-562 leukemia) was > 100000 nM. For the same molecule, the TGI (MOLT-4 leukemia) was 724 nM, the TGI (NCI-H226 lung) was 1820 nM and the TGI (NCI/ADR-RES ovarian) was > 100000 nM. It also gave a TGI (OVCAR-4 ovarian) of 2110 nM, a TGI (PC-3 prostate) of 1170 nM and a TGI (RXF 393 renal) of 1620 nM.
